The subject of data set [1] is femoral diaphysis. The data set is described as follows: Calcium content in femoral diaphysis of young rats (Test Example 1, osteogenesis-stimulating action). Format: in vivo, young Wistar rats. As to conditions: oral, 5.5 mg/kg body weight in terms of zinc, once a day for 3 days; 24 h after last dose; average ± standard error; control 386.5 ± 6.5. As for the experimental part:
(§1) The osteogenesis-stimulating action of the zinc complex of L-carnosine was confirmed by the calcium content, zinc content, alkaline phosphatase activity and DNA content in the femoral diaphysis of young rats used. Zinc sulfate was used as a comparative compound.
(§2) Young Wistar rats were used regarding five rats as one group. […] A control group was orally given with a solvent alone.
(§3) The agent to be tested was administered for 3 days once a day in an amount corresponding to 5.5 mg/kg body weight in terms of zinc. Upon elapsed time of 24 hours after the last dose, the rats were sacrificed and the femoral regions were taken out of each rat under light ether anesthesia. Soft tissues and bone marrow were removed from the femoral region. The diaphysis and epiphysis (including metaphyseal tissues) were separated from each other to form fragments of the femoral diaphysis.
The femoral diaphysis tissue was ashed for 24 hours at 640° C. to weigh the resulting ash. Thereafter, the ash was dissolved in 6N hydrochloric acid to measure its calcium content by atomic absorption spectrophotometry. The calcium content in the bone was expressed in terms of mg per g of the bone ash.
(§4) The data were shown as average value±standard error. The significant difference was determined using the Student's t-test.

Data set [2] deals with alkaline phosphatase. The data set can be described thus: Alkaline phosphatase activity in femoral diaphysis of young rats (Test Example 1). It is filed as in vivo, young Wistar rats. As to conditions: oral, 5.5 mg/kg body weight in terms of zinc, once a day for 3 days; 24 h after last dose; average ± standard error; control 1599.6 ± 74.5. As for the experimental part:
as §1, §2
The agent to be tested was administered for 3 days once a day in an amount corresponding to 5.5 mg/kg body weight in terms of zinc. Upon elapsed time of 24 hours after the last dose, the rats were sacrificed and the femoral regions were taken out of each rat under light ether anesthesia. […]
The femoral diaphysis tissue was immersed into 3 ml of ice-cold 6.5 mM barbital buffer solution (pH: 7.4) and then cut into pieces to uniformly grind them by a Potter-Blvehjem homogenizer equipped with a Teflon pestle. […] The alkaline phosphatase activity was determined in accordance with the Wallter-Schutt procedure [Bergmeyer HU (ed), Methods of enzymatic analysis, Vol. 1-2, Academic Press, New York, pp. 856-860 (1965)]. […] The concentration of protein was measured in accordance with the method by Lowry et al. [J. Biol. Chem., 193, 265-273 (1951)].
as §4

The test system of data set [3] is femoral diaphysis. The data set is described as follows: DNA content in femoral diaphysis of young rats (Test Example 1). Format: in vivo, young Wistar rats. As to conditions: oral, 5.5 mg/kg body weight in terms of zinc; for change in DNA content in the femoral diaphysis: 3 days, in words; for DNA: once a day for 3 days, 24 h after last dose, average ± standard error, control 1.450 ± 0.020. As for the experimental part:
as §1, §2, §3
A small fragment of the fempral diaphysis was subjected to homogenization for bone tissue, followed by its shaking together with 4.0 ml of 0.1N sodium hydroxide solution cooled with ice. After the thus-treated homogenate was subjected to alkali extraction, the extract was centrifuged at 10,000×g for 5 minutes. The thus-obtained supernatant liquid was used for the measurement in accordance with the Ceriotti method [J. Biol. Chem., 214, 39-77 (1955)]. The DNA content was expressed in terms of the total DNA content (mg) per gram of a wet bone.
as §4

For data set [4], the system named is femoral diaphysis. The data set is described as follows: Zinc content in femoral diaphysis of young rats (Test Example 1). It is filed as in vivo, young Wistar rats. The settings on record: oral, 5.5 mg/kg body weight in terms of zinc, once a day for 3 days; 24 h after last dose; average ± standard error; control 156.9 ± 7.7. As for the experimental part: as §1, §2, §3
A fragment of the femoral diaphysis was digested with nitric acid [Biochem. Pharmacol., 36, 4007-4012 (1986)] to measure the content of zinc by atomic adsorption spectrophotometry. The zinc content was expressed in terms of micrograms of zinc per gram of a wet bone.
as §4

The subject of data set [5] is femoral diaphysis. The data set is described as follows: Osteogenesis-stimulating action (overall, Test Example 1). Format: in vivo, young Wistar rats. As to conditions: for change in zinc content, calcium content and alkaline phosphatase activity in the femoral diaphysis: oral, 5.5 mg/kg body weight in terms of zinc, 3 days, in words. As for the experimental part:
as §1, §2, §3

Data set [6] relates to rats. The data set is described as follows: Oral acute toxicity (Test Example 2). Format: in vivo, Wister male and female rats. The settings on record: 10 g/kg body weight, observation for 7 days, male and female rats. The text has this:
Using Wister male and female rats of 150-200 g by weight regarding 10 rats as respective groups, the crystalline zinc complex of L-carnosine in a dose of 10 g/kg body weight) was orally administered to each rat.

The conditions of data set [7]: in vivo; cited from earlier work.

In the case of `NCCC(=O)[N-][C@@H](Cc1c[nH]cn1)C(=O)[O-].[Zn+2]` [L-carnosine zinc complex, Crystalline Zinc Complex of L-Carnosine], the Calcium content in data set [1] is on record as 458.1 ± 8.7 mg/g bone ash. Moreover, the Alkaline phosphatase in data set [2] was 1963.4 ± 118.3 μmol/min/mg protein. Further, in data set [3], the “change in DNA content in the femoral diaphysis” value is “increased” and the DNA amounted to 2.931 ± 0.100 mg/g wet bone. In data set [4], the Zinc is on record as 235.0 ± 9.1 μg/g wet bone. For the same molecule, the “change in zinc content, calcium content and alkaline phosphatase activity in the femoral diaphysis” value in data set [5] is “increased”. For the same molecule, the “osteogenesis-stimulating action compared with zinc sulfate” value in data set [5] (same amounts (5.5 mg/kg body weight) in terms of zinc) is reported as “stronger osteogenesis-stimulating action than zinc sulfate”. For the same molecule, in data set [6], the dead cases entry is “dead cases were not recognized”.

For the molecule `O=S(=O)([O-])[O-].[Zn+2]` [Zinc sulfate, zinc sulfate, reference compound], the Calcium content in data set [1] came to 405.8 ± 4.5 mg/g bone ash. For the same molecule, the Alkaline phosphatase in data set [2] came out at 2580.5 ± 80.3 μmol/min/mg protein. In data set [3], the “change in DNA content in the femoral diaphysis” value was “a significant change was not produced” and the DNA came to 1.510 ± 0.050 mg/g wet bone. The molecule further displayed a Zinc in data set [4] of 206.7 ± 9.8 μg/g wet bone. Further, in data set [5], the “change in zinc content, calcium content and alkaline phosphatase activity in the femoral diaphysis” value is listed as “increased”. The side effects entry in data set [7] is “vomiting, nausea and diarrhea”.

These data come from patent US5294634A, “Osteogenesis promoter” (Zeria Pharmaceutical Co., Ltd., priority 1989, dated 1994).
